According to publication PMC7411887, “New Paracyclophanylthiazoles with Anti-Leukemia Activity: Design, Synthesis, Molecular Docking, and Mechanistic Studies” (Molecules, 2020):

Key:
Assay in all cases: NCI single-dose screen (SRB)
Type in all cases: cell-based
[1] = test system: K-562; details: Homo sapiens, K562; Leukemia K-562; 10^−5 M; read-out: Growth inhibition percentage
Method: (§1) The methodology of the NCI anticancer screening was described in detail elsewhere (http://www.dtp.nci.nih.gov). […] Tested compounds were added to the culture at a single concentration (10^−5 M) and the cultures were incubated for 48 h. End-point determinations were made with a protein binding dye, SRB. Results for each tested compound were reported as the percentage growth of the treated cells when compared to the untreated control cells. The percentage growth was evaluated spectrophotometrically versus controls not treated with test agents. All experiments were repeated three times (Table 1).
(§2) Briefly, the protocol was performed on 60 human tumor cell lines derived from different nine neoplastic diseases. […] If the results obtained met selection criteria, then the compound was tested again on all 60 cell lines in 5× 10-fold dilutions with the top dose being 10^−4 M or 150 μg/mL. Detailed methods are described in the Supplementary Materials related to this article.
(§3) on their site (http://www.dtp.nci.nih.gov). But briefly, the protocol performed at sixty human
(§4) National Cancer Institute, Bethesda, USA. If the results obtained meet selection criteria, then the
(§5) 10-4 molar or 150 μg/mL. […]

[2] = test system: ACHN; details: Homo sapiens; Renal Cancer ACHN; 10^−5 M; read-out: Growth inhibition percentage
Method: as §1, §2, §3, §4, §5

[3] = test system: SNB-19; details: Homo sapiens; CNS Cancer SNB-19; 10^−5 M; read-out: Growth inhibition percentage
Method: as §1, §2, §3, §4, §5

[4] = test system: SK-OV-3; details: Homo sapiens; Ovarian Cancer SK-OV-3; 10^−5 M; read-out: Growth inhibition percentage
Method: as §1, §2, §3, §4, §5

[5] = test system: NCI-H522; details: Homo sapiens; Non-Small-Cell Lung Cancer NCI-H522; 10^−5 M; read-out: Growth inhibition percentage
Method: as §1, §2, §3, §4, §5

[6] = test system: COLO 205; details: Homo sapiens; Colon Cancer COLO 205; 10^−5 M; read-out: Growth inhibition percentage
Method: as §1, §2, §3, §4, §5

[7] = test system: KM12; details: Homo sapiens; Colon Cancer KM12; 10^−5 M; read-out: Growth inhibition percentage
Method: as §1, §2, §3, §4, §5

[8] = test system: 786-0; details: Homo sapiens; Renal Cancer 786-0; 10^−5 M; read-out: Growth inhibition percentage
Method: as §1, §2, §3, §4, §5

[9] = test system: MDA-MB-468; details: Homo sapiens; Breast Cancer MDA-MB-468; 10^−5 M; read-out: Growth inhibition percentage
Method: as §1, §2, §3, §4, §5

[10] = test system: OVCAR-8; details: Homo sapiens; Ovarian Cancer OVCAR-8; 10^−5 M; read-out: Growth inhibition percentage
Method: as §1, §2, §3, §4, §5

[11] = test system: EKVX; details: Homo sapiens; Non-Small-Cell Lung Cancer EKVX; 10^−5 M; read-out: Growth inhibition percentage
Method: as §1, §2, §3, §4, §5

[12] = test system: OVCAR-5; details: Homo sapiens; Ovarian Cancer OVCAR-5; 10^−5 M; read-out: Growth inhibition percentage
Method: as §1, §2, §3, §4, §5

[13] = test system: U251; details: Homo sapiens, U-251; CNS Cancer U251; 10^−5 M; read-out: Growth inhibition percentage
Method: as §1, §2, §3, §4, §5

[14] = test system: SR; details: Homo sapiens; Leukemia SR; 10^−5 M; read-out: Growth inhibition percentage
Method: as §1, §2, §3, §4, §5

[15] = test system: MDA-MB-435; details: Homo sapiens; Melanoma MDA-MB-435; 10^−5 M; read-out: Growth inhibition percentage
Method: as §1, §2, §3, §4, §5

[16] = test system: SN12C; details: Homo sapiens; Renal Cancer SN12C; 10^−5 M; read-out: Growth inhibition percentage
Method: as §1, §2, §3, §4, §5

[17] = test system: TK-10; details: Homo sapiens; Renal Cancer TK-10; 10^−5 M; read-out: Growth inhibition percentage
Method: as §1, §2, §3, §4, §5

[18] = test system: MCF7; details: Homo sapiens; Breast Cancer MCF7; 10^−5 M; read-out: Growth inhibition percentage
Method: as §1, §2, §3, §4, §5

[19] = test system: SF-295; details: Homo sapiens; CNS Cancer SF-295; 10^−5 M; read-out: Growth inhibition percentage
Method: as §1, §2, §3, §4, §5

[20] = test system: MOLT-4; details: Homo sapiens; Leukemia MOLT-4; 10^−5 M; read-out: Growth inhibition percentage
Method: as §1, §2, §3, §4, §5

[21] = test system: T-47D; details: Homo sapiens, T47D; Breast Cancer T-47D; 10^−5 M; read-out: Growth inhibition percentage
Method: as §1, §2, §3, §4, §5

[22] = test system: SF-539; details: Homo sapiens; CNS Cancer SF-539; 10^−5 M; read-out: Growth inhibition percentage
Method: as §1, §2, §3, §4, §5

[23] = test system: MDA-MB-231/ATCC; details: Homo sapiens; Breast Cancer MDA-MB-231/ATCC; 10^−5 M; read-out: Growth inhibition percentage
Method: as §1, §2, §3, §4, §5

[24] = test system: CCRF-CEM; details: Homo sapiens; Leukemia CCRF-CEM; 10^−5 M; read-out: Growth inhibition percentage
Method: as §1, §2, §3, §4, §5

[25] = test system: M14; details: Homo sapiens; Melanoma M14; 10^−5 M; read-out: Growth inhibition percentage
Method: as §1, §2, §3, §4, §5

[26] = test system: CAKI-1; details: Homo sapiens; Renal Cancer CAKI-1; 10^−5 M; read-out: Growth inhibition percentage
Method: as §1, §2, §3, §4, §5

[27] = test system: HCC-2998; details: Homo sapiens; Colon Cancer HCC-2998; 10^−5 M; read-out: Growth inhibition percentage
Method: as §1, §2, §3, §4, §5

[28] = test system: UO-31; details: Homo sapiens; Renal Cancer UO-31; 10^−5 M; read-out: Growth inhibition percentage
Method: as §1, §2, §3, §4, §5

[29] = test system: OVCAR-4; details: Homo sapiens; Ovarian Cancer OVCAR-4; 10^−5 M; read-out: Growth inhibition percentage
Method: as §1, §2, §3, §4, §5

[30] = test system: UACC-257; details: Homo sapiens; Melanoma UACC-257; 10^−5 M; read-out: Growth inhibition percentage
Method: as §1, §2, §3, §4, §5

| Compound | inhibition at 10 µM [1] [%] | inhibition at 10 µM [2] [%] | inhibition at 10 µM [3] [%] | inhibition at 10 µM [4] [%] | inhibition at 10 µM [5] [%] | inhibition at 10 µM [6] [%] | inhibition at 10 µM [7] [%] | inhibition at 10 µM [8] [%] | inhibition at 10 µM [9] [%] | inhibition at 10 µM [10] [%] | inhibition at 10 µM [11] [%] | inhibition at 10 µM [12] [%] | inhibition at 10 µM [13] [%] | inhibition at 10 µM [14] [%] | inhibition at 10 µM [15] [%] | inhibition at 10 µM [16] [%] | inhibition at 10 µM [17] [%] | inhibition at 10 µM [18] [%] | inhibition at 10 µM [19] [%] | inhibition at 10 µM [20] [%] | also measured |
| --- | --- | --- | --- | --- | --- | --- | --- | --- | --- | --- | --- | --- | --- | --- | --- | --- | --- | --- | --- | --- | --- |
| COC(=O)C=C1SC(=NNC(=O)c2cc3ccc2CCc2ccc(cc2)CC3)N(Cc2ccccc2)C1=O [Compound 3b] | 81.1 | 34.2 | 43.1 | 0 | 84.1 | 27.3 | 34.9 | 50.5 | 78.9 | 28 | 22.3 | 34.6 | 45 | 115 | 8.44 | 38.8 | 4.53 | 67.3 | 10.6 | 98.9 | inhibition at 10 µM [21]: 106%; inhibition at 10 µM [22]: 56.7%; inhibition at 10 µM [23]: 43.2%; inhibition at 10 µM [24]: 96.2%; inhibition at 10 µM [25]: 36.6%; inhibition at 10 µM [26]: 84.4%; inhibition at 10 µM [27]: 20.5%; inhibition at 10 µM [28]: 55%; inhibition at 10 µM [29]: 55.4%; inhibition at 10 µM [30]: 19% |
| COC(=O)C=C1SC(=Nc2cccnc2)N(NC(=O)c2cc3ccc2CCc2ccc(cc2)CC3)C1=O [Compound 3c, Methyl (E)-2-((E)-3-[2.2]paracyclophanyl)amido-4-oxo-2-(pyridin-3-ylimino)-thiazolidin-5-ylidene)acetate] | 20.7 | 11 | 16.6 | 0 | 17.7 | 0 | 7.32 | 8.52 | 18 | 1.51 | 2.61 | 0.61 | 14.7 | 74.2 | 0 | 8.87 | 0 | 26.8 | 5.63 | 21.9 | inhibition at 10 µM [21]: 31.1%; inhibition at 10 µM [22]: 11.6%; inhibition at 10 µM [23]: 10.6%; inhibition at 10 µM [24]: 31.3%; inhibition at 10 µM [25]: 7.99%; inhibition at 10 µM [26]: 4.78%; inhibition at 10 µM [27]: 0%; inhibition at 10 µM [28]: 21.9%; inhibition at 10 µM [29]: 7.76%; inhibition at 10 µM [30]: 0.83% |
| COC(=O)C=C1SC(=NNC(=O)c2cc3ccc2CCc2ccc(cc2)CC3)N(c2ccccc2)C1=O [Compound 3a] | 73 | 30.7 | 60.1 | 0 | 58.5 | 52.3 | 91.5 | 100 | 100 | 59.3 | 41 | 51.8 | 84.2 | 116 | 10.4 | 77.5 | 84.8 | 76.8 | 41 | 97 | inhibition at 10 µM [21]: 138%; inhibition at 10 µM [22]: 122%; inhibition at 10 µM [23]: 67.5%; inhibition at 10 µM [24]: 87%; inhibition at 10 µM [25]: 46.9%; inhibition at 10 µM [26]: 94.7%; inhibition at 10 µM [27]: 96.4%; inhibition at 10 µM [28]: 41.5%; inhibition at 10 µM [29]: 70.6%; inhibition at 10 µM [30]: 30.8% |
| C=CCN1C(=O)C(=CC(=O)OC)SC1=NNC(=O)c1cc2ccc1CCc1ccc(cc1)CC2 [Compound 3d] | 48.1 | 12.2 | 15.3 | 0 | 39.2 | 0 | 18.4 | 8.77 | 23.7 | 11.8 | 9.16 | 3.9 | 18.2 | 98.2 | 0 | 13.1 | 0 | 48.5 | 6.42 | 64.5 | inhibition at 10 µM [21]: 25%; inhibition at 10 µM [22]: 0.33%; inhibition at 10 µM [23]: 2.27%; inhibition at 10 µM [24]: 77.1%; inhibition at 10 µM [25]: 21.1%; inhibition at 10 µM [26]: 5.23%; inhibition at 10 µM [27]: 0%; inhibition at 10 µM [28]: 24.6%; inhibition at 10 µM [29]: 2.93%; inhibition at 10 µM [30]: 8.89% |
| CCN1C(=O)C(=CC(=O)OC)SC1=NNC(=O)c1cc2ccc1CCc1ccc(cc1)CC2 [Compound 3e] | 45.8 | 10.4 | 14.4 | 0 | 40.3 | 0 | 15 | 9.45 | 12.7 | 7.42 | 6.44 | 0 | 15.6 | 113 | 0.72 | 4.97 | 6.5 | 56.3 | 3.13 | 62.9 | inhibition at 10 µM [21]: 5.77%; inhibition at 10 µM [22]: 9.82%; inhibition at 10 µM [23]: 3.95%; inhibition at 10 µM [24]: 66.1%; inhibition at 10 µM [25]: 12.8%; inhibition at 10 µM [26]: 0%; inhibition at 10 µM [27]: 0%; inhibition at 10 µM [28]: 21%; inhibition at 10 µM [29]: 10%; inhibition at 10 µM [30]: 7.26% |
